Measurements reported in ChEMBL document CHEMBL1157822, “Synthesis and SAR of novel isoquinoline CXCR4 antagonists with potent anti-HIV activity” (Bioorg Med Chem Lett, 2010).
Activity calls are given as the source filed them. No cut-off for these calls is given here.

What was measured:
[1] = system: Human immunodeficiency virus 1; test: Antiviral activity against HIV1 3B infected in human HOS cells expressing human CXCR4/CCR5/CD4/pHIV-LTR luciferase assessed as inhibition of viral infection to cells; format: functional, organism-based; conditions: Human immunodeficiency virus 1, 3B
[2] = Cytotoxicity against human HOS cells expressing human CXCR4/CCR5/CD4/pHIV-LTR luciferase; format: cell-based
[3] = Clearance in rat at 1 mg/kg, iv; format: ADME, organism-based; design: dose 1 mg/kg, route intravenous; conditions: in vivo
[4] = Volume of distribution in rat at 1 mg/kg, iv; format: ADME, organism-based; design: dose 1 mg/kg, route intravenous; conditions: in vivo
[5] = Oral bioavailability in rat at 3 mg/kg; format: ADME, organism-based; conditions: in vivo
[6] = Half life in rat at 1 mg/kg, iv; format: ADME, organism-based; design: dose 1 mg/kg, route intravenous; conditions: in vivo
[7] = biological target: T1, C-X-C chemokine receptor type 4 (Homo sapiens, UniProt P61073); test: Antagonist activity at human CXCR4 expressed in HEK293 cells; format: functional, cell-based
T1 sequence (P61073 whole entry): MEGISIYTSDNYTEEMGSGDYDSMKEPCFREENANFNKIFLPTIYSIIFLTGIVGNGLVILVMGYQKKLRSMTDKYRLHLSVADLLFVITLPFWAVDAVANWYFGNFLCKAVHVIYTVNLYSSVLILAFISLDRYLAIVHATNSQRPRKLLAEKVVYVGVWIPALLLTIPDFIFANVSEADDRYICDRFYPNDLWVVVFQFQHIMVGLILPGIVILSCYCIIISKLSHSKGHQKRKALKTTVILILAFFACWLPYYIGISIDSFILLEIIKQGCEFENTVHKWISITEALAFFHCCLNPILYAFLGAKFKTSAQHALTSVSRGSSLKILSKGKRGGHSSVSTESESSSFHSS

[8] = biological target: T1, C-X-C chemokine receptor type 4; test: Binding affinity to human CXCR4 expressed in HEK293 cells; format: cell-based

IC50 [1] [nM] | clearance [3] [mL/min/kg] | Vd [4] [L/kg] | bioavailability [5] [%] | half-life [6] [h] | Activity [7] | IC50 [8] [nM] | Compound | CC50 [2] [nM]
120 |  |  |  |  |  |  | Cn1ccnc1CN(CCCCN)C1CCCc2cccnc21 (racemic) | > 20000
34 |  |  |  |  |  |  | NCCCCN(Cc1ccc2ccccc2n1)C1CCCc2cccnc21 (racemic) | 12000
38 | 16 | 1.7 | 20 | 3.1 |  |  | CN(C)C(=O)NCCCc1c(CN(C)[C@H]2CCCc3cccnc32)ncc2ccccc12 | 750
21 |  |  |  |  |  |  | CN(Cc1ncc2ccccc2c1CCC#N)[C@H]1CCCc2cccnc21 | 950
23 |  |  |  |  | Active |  | NCCCCN(Cc1nc2ccccc2[nH]1)C1CCCc2cccnc21 (racemic) | 13000
12 |  |  |  |  |  |  | CN1CCC[C@@H]1C(=O)NCc1c(CN(C)[C@H]2CCCc3cccnc32)ncc2ccccc12 | 690
12 | 11 | 1.5 | 10 | 1.5 | Active | 16 | CN(C)CC(=O)NCc1c(CN(C)[C@H]2CCCc3cccnc32)ncc2ccccc12 | 480
27 |  |  |  |  |  |  | CN(Cc1ncc2ccccc2c1CN)[C@H]1CCCc2cccnc21 | 3100
5 | 6.1 | 2.9 | 6 | 2.9 | Active | 3.4 | CN(C)CCCc1c(CN(C)[C@H]2CCCc3cccnc32)ncc2ccccc12 | 650
200 |  |  |  |  |  |  | NCCCCN(Cc1nc2ccccc2s1)C1CCCc2cccnc21 (racemic) | 13000
> 20000 |  |  |  |  |  |  | Cn1cncc1CN(CCCCN)C1CCCc2cccnc21 (racemic) | > 20000
12 |  |  |  |  |  |  | CN(Cc1ncc2ccccc2c1CCCN)[C@H]1CCCc2cccnc21 | 1000
70 |  |  |  |  |  |  | NCCCCN(Cc1ccccn1)C1CCCc2cccnc21 (racemic) | 11000
160 |  |  |  |  |  |  | CN(Cc1cc2ccccc2cn1)[C@H]1CCCc2cccnc21 | 650
12 |  |  |  |  |  |  | NCCCCN(Cc1cc2ccccc2cn1)C1CCCc2cccnc21 (racemic) | 13000
> 20000 |  |  |  |  |  |  | NCCCCN(Cc1cccnc1)C1CCCc2cccnc21 (racemic) | > 20000
16 | 9.5 | 1.4 | 4 | 5.8 |  |  | CN(Cc1ncc2ccccc2c1CCCNS(C)(=O)=O)[C@H]1CCCc2cccnc21 | 690
17 |  |  |  |  |  |  | CN(Cc1ncc2ccccc2c1CCCNC(=N)N)[C@H]1CCCc2cccnc21 | 6500
42 |  |  |  |  |  |  | NCCCCN(Cc1cn2ccccc2n1)C1CCCc2cccnc21 (racemic) | > 20000
48 |  |  |  |  |  |  | CN(C)Cc1c(CN(C)[C@H]2CCCc3cccnc32)ncc2ccccc12 | 5900
11 |  |  |  |  |  |  | NCCCCN(Cc1nccc2ccccc12)C1CCCc2cccnc21 (racemic) | 8200
41 |  |  |  |  |  |  | CN(Cc1ncc2ccccc2c1CNS(C)(=O)=O)[C@H]1CCCc2cccnc21 | 2000
44 |  |  |  |  |  |  | CN1CCC[C@H]1C(=O)NCc1c(CN(C)[C@H]2CCCc3cccnc32)ncc2ccccc12 | 540
72 |  |  |  |  |  |  | CN(Cc1ncc2ccccc2c1C#N)[C@H]1CCCc2cccnc21 | 1300
340 |  |  |  |  |  |  | NCCCCN(Cc1nccs1)C1CCCc2cccnc21 (racemic) | 9700
20 | 16 | 9 | 0 | 12 |  |  | CN(Cc1ncc2ccccc2c1CNC(=N)N)[C@H]1CCCc2cccnc21 | 9000
